Assay results taken from patent publication US7351729B2, “JNK inhibitors for use in combination therapy for treating or managing proliferative disorders and cancers” (Signal Pharmaceuticals, LLC, priority 2002, dated 2008).

Legend:
[1] = system: Lewis Lung Carcinoma (LLC) tumors; test: LLC tumor growth in mice, JNK inhibitor B with cyclophosphamide; type: in vivo, C57BL/6 mice; conditions: CTX (50 mg/kg, ip, q3d) in combination with JNK inhibitor B; 17 days; 10/group
Protocol: This experiment was performed to determine if JNK inhibitors will enhance the antitumor effects of cyclophosphamide (CTX) in combination treatment. Results are illustrated in FIG. 2.
Lewis Lung Carcinoma (LLC) tumors were injected into C57BL/6 mice (50 mice, 10/group), 1×10^6 cells in 0.1 ml Matrigel. Tumors were treated the day after inoculation by administration of vehicle alone (0.5% CMC/0.25% Tween 80), cyclophosphamide (CTX, 50 mg/kg, ip, q3d), SPC2 (75 mg/kg, ip, b.i.d.) or CTX in combination with JNK inhibitor B. Tumor volume was recorded over a period of 17 days. Tumor volume was calculated by the formula: mm^3=(L×W^2)/2. In the CTX/JNK inhibitor B combination group, 7/10 animals had no measurable tumors at the end of the study.

[2] = system: Lewis Lung Carcinoma (LLC) cells; test: Lewis Lung Carcinoma (LLC) proliferation in vitro, Alamar Blue fluorescence; type: cell-based; conditions: combination with a chemodrug (doxorubican, 5-FU, cisplatin or paclitaxel), 48 hours after treatment, relative to JNK inhibitor or chemodrug alone
Protocol: This experiment was performed in vitro to determine the effect on Lewis Lung Carcinoma (LLC) proliferation of combination treatment with JNK inhibitor A and JNK inhibitor B (JNK inhibitor A=((2H-Dibenzo(cd,g)indazol-6-one)); JNK inhibitor B=(3-(4-fluoro-phenyl)-5-(2H-(1,2,4-triazol-3-yl)-1H-indazole)) and anti-cancer agents. The results are illustrated in FIGS. 1A and 1B.
LLC cells were grown in DMEM with 10% FBS. Cells were subsequently treated on the second day with either DMSO,JNK inhibitor A (3 μM, 10 μM or 30 μM), JNK inhibitor B (1 μM, 3 μM, or 10 μM), or a chemodrug (i.e., doxorubican, […] (5-FU), cisplatin or paclitaxel) (concentrations ranging from 0.001 μM to 10 μM) or a combination of JNK inhibitor A or JNK inhibitor B with a chemodrug. Cell proliferation was measured at 48 hours after treatment by Alamar Blue fluorescence.

[3] = system: HCT-116 human colorectal cancer cells; test: HCT-116 tumor growth in SCID mice, JNK inhibitor C with Camptosar; type: in vivo, CB17 SCID mice; conditions: JNK inhibitor C (15 mg/kg, i.p., b.i.d) + Camptosar (1.5 mg/kg, q4d)
Protocol: The following experiment was performed to determine the effectiveness of combination treatment with JNK inhibitor C (JNK inhibitor C=(3-(4-(2-Piperidin-1-yl-ethoxy)-cyclohexa-1,5-dienyl)-5-(2H-(1,2,4)triazol-3-yl)-1H-indazole)) and Camptosar. The results are illustrated in FIG. 5.
CB17 SCID mice were inoculated subcutaneously with HCT-116 human colorectal cancer cells. On day 8, mice bearing tumors of 100 mm^3 were segregated into groups and administered i.p. with vehicle (citrate buffer), JNK inhibitor C (15 mg/kg), JNK inhibitor C (30 mg/kg), JNK inhibitor C (15 mg/kg)+Camptosar (1.5 mg/kg), Camptosar (1.5 mg/kg) or Camptosar (10 mg/kg). The tumors were measured twice a week and volumes calculated. The dosing regimen for the compound JNK inhibitor C was b.i.d and for Camptosar was q4d. The arrows indicate the dosing days of JNK inhibitor C and Camptosar.

MiaPaCa cells = test: MiaPaCa cell apoptosis, DiOC6 staining and flow cytometry; type: cell-based; conditions: taxol for first 7 hours, washed out, then JNK inhibitor A; read at 48 hours; compared to taxol alone
Protocol: The following experiment was performed to determine the effectiveness of combination treatment with JNK inhibitor A and a chemodrug on apoptosis. The results are illustrated in FIG. 3.
MiaPaCa cells (100,000/well) were plated in 6 well plates. Following overnight incubation, vehicle or taxol was added alone for the first 7 hours, washed out, and then JNK inhibitor A or vehicle were added for the remainder of the experiment. After 48 hours, each sample was trypsinized, stained with DiOC6 and analyzed by flow cytometry on a Coulter Epics flow cytometer using FlowJo software.

Lewis lung carcinoma = test: LLC tumor growth in mice, JNK inhibitor A with cyclophosphamide; type: in vivo, C57BL/6 mice; conditions: JNK inhibitor A in combination with cyclophosphamide; p=0.05; N=10
Protocol: The following experiment was performed to determine the effectiveness of combination treatment with JNK inhibitor A and cyclophosphamide. The results are illustrated in FIG. 4.
Tumor cells were cultured under normal conditions, harvested with trypsin, washed with PBS then resuspended, 1×10^7 cells/ml in Matrigel (Collaborative). C57BL/6 mice (female, 18-20 g, Charles River) were lightly anesthetized using Isofluorane then inoculated, subcutaneously, under the right flank with 0.1 ml Matrigel containing 1×10^6 tumor cells. Mice were randomized into treatment groups immediately after cell inoculation. After 3 days tumor growth treatment began. Mice were administered vehicle alone (DMSO), cyclophosphamide (CTX), JNK inhibitor A or CTX in combination with JNK inhibitor A. Tumor volumes were determined by caliper measurement. Tumor volume was calculated by the formula: mm^3=(L×W2)/2. Values are mean±sem, N=10.

Row | Structure (SMILES) | animals with no measurable tumors at the end of the study [1] | killing of cells (cell proliferation) [2] | tumor growth versus either treatment alone [3] | chemotherapeutic induction of apoptosis (MiaPaCa cells) | tumor inhibition (tumor volume) versus cyclophosphamide alone (Lewis lung carcinoma)
1 | Fc1ccc(-c2n[nH]c3ccc(-c4ncn[nH]4)cc23)cc1 [JNK inhibitor B, 3-(4-fluoro-phenyl)-5-(2H-(1,2,4)triazol-3-yl)-1H-indazole] | 7/10 | increased killing of cells |  |  | 
2 | C1=CC(OCCN2CCCCC2)CC=C1c1n[nH]c2ccc(-c3ncn[nH]3)cc12 (stereo not drawn) [JNK inhibitor C, 3-(4-(2-Piperidin-1-yl-ethoxy)-cyclohexa-1,5-dienyl)-5-(2H-(1,2,4)triazol-3-yl)-1H-indazole] |  |  | significantly slower |  | 
3 | O=C1c2ccccc2-c2n[nH]c3cccc1c23 [JNK inhibitor A, 2H-Dibenzo(cd,g) indazol-6-one] |  | increased killing of cells |  | Potentiates Chemotherapeutic Induction of Apoptosis | significantly less
